From patent publication EP0159881A2, “23-C-substituted mycaminosyl tylonolide” (ZAIDAN HOJIN BISEIBUTSU KAGAKU KENKYU KAI, priority 1984, dated 1985)
≈ marks a conversion by molar mass, not a printed value. Where two headings read alike, the source gives them in different places.

Assays:
Test in all cases: minimum inhibitory concentration (MIC), antimicrobial activity
Format in all cases: cell-based
B. Subtilis NRRL B-558 = system: B. Subtilis NRRL B-558
Source text: (§1) Concerning the antimicrobial activity of the compounds of this invention of the formula (I), minimum effective inhibitory concentrations (MIC) of the compounds are shown in the following Table.

Kl. pnueroniae PCI-602 = system: Kl. pnueroniae PCI-602
Source text: as §1

M. luteus PCI 1001 = system: M. luteus PCI 1001
Source text: as §1

Pseud. aeruginosa A3 = system: Pseud. aeruginosa A3
Source text: as §1

Sal.entiritidis 1891 = system: Sal.entiritidis 1891
Source text: as §1

Staph. aureus Smith = system: Staph. aureus Smith
Source text: as §1

[1] = Bacillus subtilis, NRRLB558, read-out: MIC
[2] = Micrococcus luteus, PCI1001, read-out: MIC
[3] = Pseudomonas aeruginosa, A3, Pseud. aeruginosa A3, read-out: MIC
[4] = Staphylococcus aureus, read-out: MIC

| Compound | MIC (B. Subtilis NRRL B-558) | MIC (Kl. pnueroniae PCI-602) | MIC (M. luteus PCI 1001) | MIC (Pseud. aeruginosa A3; Pseud. aeruginosa A3) | MIC (Sal.entiritidis 1891) | MIC (Staph. aureus Smith) | MIC (B. Subtilis NRRL B-558; [1]) | MIC (Kl. pnueroniae PCI-602; read-out: MIC) | MIC (M. luteus PCI 1001; [2]) | MIC (Pseud. aeruginosa A3; [3]) | MIC (Sal.entiritidis 1891; read-out: MIC) | MIC (Staph. aureus Smith; [4]) |
| --- | --- | --- | --- | --- | --- | --- | --- | --- | --- | --- | --- | --- |
| 23-C-methylmycaminosyl tylonolide diethylacetal [2(2)] | 0.78 µg/mL | 3.12 µg/mL | <0.2 µg/mL | 12.5 µg/mL | 3.12 µg/mL | 1.56 µg/mL | – | – | – | – | – | – |
| CCC1OC(=O)CC(O)C(C)C(OC2OC(C)C(O)C(N(C)C)C2O)C(CC=O)CC(C)C(=O)/C=C/C(C)=C/C1C(C)O (single isomer, unassigned) [1(3), 23-C-methylmycaminosyl tylonolide] | – | – | – | – | – | – | 0.78 µg/mL (≈ 1.27 µM) | 3.12 µg/mL (≈ 5.1 µM) | < 0.2 µg/mL | 12.5 µg/mL (≈ 20.4 µM) | 3.12 µg/mL (≈ 5.1 µM) | 1.56 µg/mL (≈ 2.55 µM) |
| CCC(O)C1/C=C(C)/C=C/C(=O)C(C)CC(CC=O)C(OC2OC(C)C(O)C(N(C)C)C2O)C(C)C(O)CC(=O)OC1CC (single isomer, unassigned) [4(2), 23-C-ethylmycaminosyl tylonolide] | – | – | – | – | – | – | 0.39 µg/mL (≈ 0.623 µM) | 6.25 µg/mL (≈ 9.99 µM) | < 0.2 µg/mL | 6.25 µg/mL (≈ 9.99 µM) | 3.12 µg/mL (≈ 4.99 µM) | 0.78 µg/mL (≈ 1.25 µM) |
| C=CCC(O)C1/C=C(C)/C=C/C(=O)C(C)CC(CC=O)C(OC2OC(C)C(O)C(N(C)C)C2O)C(C)C(O)CC(=O)OC1CC (single isomer, unassigned) [8"F, 23-C-(2-propenyl)mycaminosyl tylonolide] | – | – | – | – | – | – | 0.39 µg/mL (≈ 0.611 µM) | 3.12 µg/mL (≈ 4.89 µM) | < 0.2 µg/mL | 6.25 µg/mL (≈ 9.8 µM) | 3.12 µg/mL (≈ 4.89 µM) | < 0.2 µg/mL |
| C=CC(O)C1/C=C(C)/C=C/C(=O)C(C)CC(CC=O)C(OC2OC(C)CC(N(C)C)C2O)C(C)C(O)CC(=O)OC1CC (single isomer, unassigned) [10"F, 4'-deoxy-23-C-vinylmycaminosyl tylonolide] | – | – | – | – | – | – | 0.39 µg/mL (≈ 0.642 µM) | 3.12 µg/mL (≈ 5.13 µM) | < 0.2 µg/mL | – | 3.12 µg/mL (≈ 5.13 µM) | 0.78 µg/mL (≈ 1.28 µM) |
| C#CC(O)C1/C=C(C)/C=C/C(=O)C(C)CC(CC=O)C(OC2OC(C)CC(N(C)C)C2O)C(C)C(O)CC(=O)OC1CC (single isomer, unassigned) [12"F, 4'-deoxy-23-C-ethinylmycaminosyl tylonolide] | – | – | – | – | – | – | 0.78 µg/mL (≈ 1.29 µM) | 1.56 µg/mL (≈ 2.58 µM) | < 0.2 µg/mL | 3.12 µg/mL (≈ 5.15 µM) | 3.12 µg/mL (≈ 5.15 µM) | 0.78 µg/mL (≈ 1.29 µM) |
| CCC1OC(=O)CC(O)C(C)C(OC2OC(C)CC(N(C)C)C2O)C(CC=O)CC(C)C(=O)/C=C/C(C)=C/C1C(C)O (single isomer, unassigned) [Example 5(2), 4'-deoxy-23-C-methylmycaminosyl tylonolide] | – | – | – | – | – | – | 0.39 µg/mL (≈ 0.655 µM) | 1.56 µg/mL (≈ 2.62 µM) | < 0.2 µg/mL | 25 µg/mL (≈ 42 µM) | 3.12 µg/mL (≈ 5.24 µM) | 0.39 µg/mL (≈ 0.655 µM) |
| CCC1OC(=O)CC(O)C(C)C(OC2OC(C)CC(N(C)C)C2O)C(CC=O)CC(C)C(=O)/C=C/C(C)=C/C1C(C)O (single isomer, unassigned) [Example 6, 4'-deoxy-23-C-methymycaminosyl tylonolide] | 0.39 µg/mL (≈ 0.655 µM) | 3.12 µg/mL (≈ 5.24 µM) | <0.2 µg/mL | 12.5 µg/mL (≈ 21 µM) | 3.12 µg/mL (≈ 5.24 µM) | 0.39 µg/mL (≈ 0.655 µM) | – | – | – | – | – | – |
| C#CC(O)C1C=C(C)C=CC(=O)C(C)CC(CC=O)C(OC2OC(C)C(O)C(N(C)C)C2O)C(C)C(O)CC(=O)OC1CC (centres unmarked) [11"F, 23-C-ethinylmycaminosyl tylonolide] | 3.12 µg/mL (≈ 5.02 µM) | 3.12 µg/mL (≈ 5.02 µM) | <0.2 µg/mL | 6.25 µg/mL (≈ 10.1 µM) | 3.12 µg/mL (≈ 5.02 µM) | 1.56 µg/mL (≈ 2.51 µM) | – | – | – | – | – | – |
| CC[C@H]1OC(=O)C[C@@H](O)[C@H](C)[C@@H](O[C@@H]2O[C@H](C)C[C@H](N(C)C)[C@H]2O)[C@@H](CC=O)C[C@@H](C)C(=O)/C=C/C(C)=C/[C@@H]1CO [DT, 4'deoxy mycaminosyl/ tylonolide, reference compound] | 1.56 µg/mL (≈ 2.68 µM) | 1.56 µg/mL (≈ 2.68 µM) | <0.2 µg/mL | 12.5 µg/mL (≈ 21.5 µM) | 1.56 µg/mL (≈ 2.68 µM) | 0.39 µg/mL (≈ 0.67 µM) | – | – | – | – | – | – |
| CC[C@H]1OC(=O)C[C@@H](O)[C@H](C)[C@@H](O[C@@H]2O[C@H](C)[C@@H](O)[C@H](N(C)C)[C@H]2O)[C@@H](CC=O)C[C@@H](C)C(=O)/C=C/C(C)=C/[C@@H]1CO [MT, mycaminosyl tylonolide] | 3.12 µg/mL (≈ 5.22 µM) | 3.12 µg/mL (≈ 5.22 µM) | <0.2 µg/mL | 25 µg/mL (≈ 41.8 µM) | 3.12 µg/mL (≈ 5.22 µM) | 1.56 µg/mL (≈ 2.61 µM) | – | – | – | – | – | – |
